Results as given in US20250236589A1, “THERAPEUTIC PHENETHYLAMINE COMPOSITIONS AND METHODS OF USE” (Cybin IRL Limited, priority 2022, published 2025).
pKi: −log10 of the molar value. Read-outs that look alike come from different tables or passages of the source.

Legend:
[1] = biological target: human 5-HT2B receptor (Homo sapiens (Human), UniProt P41595); experiment: 5-HT2B radioligand binding ([125I](±)DOI)
Method: In another series of 5-HT1A,2A,2B radioligand competition binding assays, the conditions were as follows: For 5-HT1A assays, cell membrane homogenates (˜30 μg protein) derived from HEK-293 cells expressing human 5-HT1ARs were incubated with 0.5 nM [^3H]8-hydroxy-2-(di-n-propylamino)tetralin ([^3H]8-OH-DPAT) for 60 min at room temperature in the presence or absence of the test article. Non-specific binding was determined in the presence of 10 μM 8-OH-DPAT. Samples were then analyzed as described above, with only immaterial differences. […] Samples were then analyzed as described above.

[2] = biological target: 5-HT2C receptor (Homo sapiens (Human), UniProt P28335); experiment: 5-HT2C agonist radioligand binding ([125I]DOI)
Sequence of 5-HT2C receptor (P28335 whole entry, looked up): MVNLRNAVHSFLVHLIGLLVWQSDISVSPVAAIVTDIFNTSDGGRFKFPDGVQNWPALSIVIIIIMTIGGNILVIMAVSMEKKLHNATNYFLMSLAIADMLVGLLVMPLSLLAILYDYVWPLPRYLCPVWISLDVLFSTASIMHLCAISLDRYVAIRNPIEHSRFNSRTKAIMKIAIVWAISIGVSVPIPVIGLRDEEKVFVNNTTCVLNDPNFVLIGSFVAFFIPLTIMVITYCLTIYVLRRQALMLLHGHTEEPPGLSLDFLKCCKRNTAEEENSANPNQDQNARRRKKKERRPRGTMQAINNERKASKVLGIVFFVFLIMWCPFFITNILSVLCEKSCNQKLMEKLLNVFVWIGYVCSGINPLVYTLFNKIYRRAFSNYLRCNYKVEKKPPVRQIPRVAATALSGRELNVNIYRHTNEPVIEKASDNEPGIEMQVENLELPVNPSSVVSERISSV
Text: 5-HT2 Receptor Activity. […] Drug Test Anal 2012, 4 (7-8), 556-76. Ray, T. S., Psychedelics and the human receptorome. PLoS One 2010, 5 (2), e9019].

[3] = biological target: 5-HT1A (h) (Homo sapiens (Human), UniProt P08908); experiment: Off-target screen, radioligand displacement at 10 μM; assay type: binding; settings: agonist radioligand
[4] = biological target: 5-HT6 (h) (Homo sapiens (Human), UniProt P50406); experiment: as above; assay type: binding; settings: agonist radioligand
Sequence of 5-HT6 (h) (P50406 whole entry, looked up): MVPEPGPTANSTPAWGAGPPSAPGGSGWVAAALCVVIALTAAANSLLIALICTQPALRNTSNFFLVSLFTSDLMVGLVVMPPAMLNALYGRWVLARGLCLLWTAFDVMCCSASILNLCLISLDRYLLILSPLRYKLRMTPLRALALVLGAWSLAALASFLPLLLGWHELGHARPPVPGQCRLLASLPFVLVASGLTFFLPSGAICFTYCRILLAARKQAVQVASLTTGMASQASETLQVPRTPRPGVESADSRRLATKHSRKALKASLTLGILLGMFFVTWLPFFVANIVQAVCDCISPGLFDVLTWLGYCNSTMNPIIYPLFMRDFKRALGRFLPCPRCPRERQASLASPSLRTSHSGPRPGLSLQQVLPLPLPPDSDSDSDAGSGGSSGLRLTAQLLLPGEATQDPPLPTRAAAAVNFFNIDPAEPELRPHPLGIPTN

[5] = biological target: Muscarinic M1 (h) (Homo sapiens (Human), UniProt P11229); experiment: as above; assay type: binding; settings: antagonist radioligand
[6] = biological target: Muscarinic M4 (h) (Homo sapiens (Human), UniProt P08173); experiment: as above; assay type: binding; settings: antagonist radioligand
Sequence of Muscarinic M4 (h) (P08173 whole entry, looked up): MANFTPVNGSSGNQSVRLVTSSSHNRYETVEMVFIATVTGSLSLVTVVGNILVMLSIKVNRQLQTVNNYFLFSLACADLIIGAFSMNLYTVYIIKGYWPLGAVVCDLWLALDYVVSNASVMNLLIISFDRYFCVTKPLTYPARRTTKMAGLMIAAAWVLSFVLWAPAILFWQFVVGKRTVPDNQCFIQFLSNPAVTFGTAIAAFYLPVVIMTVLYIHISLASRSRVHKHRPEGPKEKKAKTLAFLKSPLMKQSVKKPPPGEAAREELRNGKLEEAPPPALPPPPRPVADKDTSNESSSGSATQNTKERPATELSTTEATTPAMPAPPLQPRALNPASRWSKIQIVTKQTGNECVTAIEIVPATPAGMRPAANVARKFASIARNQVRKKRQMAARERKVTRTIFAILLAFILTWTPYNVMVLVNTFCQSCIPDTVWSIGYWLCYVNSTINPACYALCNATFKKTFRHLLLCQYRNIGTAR

[7] = tested on: Na+ channel (site 2) (rat cortex); experiment: as above; assay type: binding; settings: antagonist radioligand
[8] = tested on: sigma (non-selective) (h); experiment: as above; assay type: binding, human; settings: agonist radioligand
[9] = biological target: Histamine H1 (h) (Homo sapiens (Human), UniProt P35367); experiment: as above; assay type: binding
[10] = biological target: 5-HT5a (h) (Homo sapiens (Human), UniProt P47898); experiment: as above; settings: agonist, read-out: binding at 10 μM
[11] = tested on: α1 (non-selective) (r); experiment: as above; assay type: binding, rat
[12] = biological target: Adrenergic β1 (h) (Homo sapiens (Human), UniProt P08588); experiment: as above; settings: read-out: binding at 10 μM
Sequence of Adrenergic β1 (h) (P08588 whole entry, looked up): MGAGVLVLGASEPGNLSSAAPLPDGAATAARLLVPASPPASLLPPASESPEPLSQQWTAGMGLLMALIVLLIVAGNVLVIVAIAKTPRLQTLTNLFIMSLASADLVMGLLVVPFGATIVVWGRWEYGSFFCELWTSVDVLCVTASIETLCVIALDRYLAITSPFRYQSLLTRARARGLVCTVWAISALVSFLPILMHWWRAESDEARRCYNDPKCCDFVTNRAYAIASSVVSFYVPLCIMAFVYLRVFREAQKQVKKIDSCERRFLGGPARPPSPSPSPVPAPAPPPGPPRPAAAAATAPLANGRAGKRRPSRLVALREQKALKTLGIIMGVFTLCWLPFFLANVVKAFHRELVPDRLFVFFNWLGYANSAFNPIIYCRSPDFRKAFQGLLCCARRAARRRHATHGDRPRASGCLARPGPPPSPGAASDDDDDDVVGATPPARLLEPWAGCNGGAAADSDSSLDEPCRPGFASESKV

[13] = biological target: Angiotensin AT1 (h) (Homo sapiens (Human), UniProt P30556); experiment: as above; settings: read-out: binding at 10 μM
[14] = biological target: Angiotensin AT2 (h) (Homo sapiens (Human), UniProt P50052); experiment: as above; settings: read-out: binding at 10 μM
Sequence of Angiotensin AT2 (h) (P50052 whole entry, looked up): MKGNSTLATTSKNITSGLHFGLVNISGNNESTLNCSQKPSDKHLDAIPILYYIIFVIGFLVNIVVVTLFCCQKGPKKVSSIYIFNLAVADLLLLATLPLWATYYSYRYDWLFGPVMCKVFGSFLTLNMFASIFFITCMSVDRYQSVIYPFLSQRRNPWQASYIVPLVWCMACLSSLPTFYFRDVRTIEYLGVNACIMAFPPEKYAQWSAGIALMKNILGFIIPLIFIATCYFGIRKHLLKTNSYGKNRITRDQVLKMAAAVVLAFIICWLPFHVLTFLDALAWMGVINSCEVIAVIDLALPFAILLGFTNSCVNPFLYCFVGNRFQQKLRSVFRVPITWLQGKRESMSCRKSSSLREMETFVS

[15] = biological target: Calcitonin Gene-Related Peptide CGRP1 (h) (Homo sapiens (Human), UniProt Q16602); experiment: as above; settings: read-out: binding at 10 μM
Sequence of Calcitonin Gene-Related Peptide CGRP1 (h) (Q16602 whole entry, looked up): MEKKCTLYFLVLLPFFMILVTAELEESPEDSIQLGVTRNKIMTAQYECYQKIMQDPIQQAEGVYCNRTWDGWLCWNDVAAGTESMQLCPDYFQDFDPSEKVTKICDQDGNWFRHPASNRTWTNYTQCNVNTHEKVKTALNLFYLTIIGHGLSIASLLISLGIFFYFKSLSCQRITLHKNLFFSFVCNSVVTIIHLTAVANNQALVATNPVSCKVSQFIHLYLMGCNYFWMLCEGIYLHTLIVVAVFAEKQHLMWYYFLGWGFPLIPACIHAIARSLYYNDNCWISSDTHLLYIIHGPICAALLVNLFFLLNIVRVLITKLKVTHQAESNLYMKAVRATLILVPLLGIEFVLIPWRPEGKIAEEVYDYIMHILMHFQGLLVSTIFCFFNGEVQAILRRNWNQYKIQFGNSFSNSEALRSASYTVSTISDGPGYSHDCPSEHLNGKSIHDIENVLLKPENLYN
Sequence of Calcitonin Gene-Related Peptide CGRP1 (h) (O60894 whole entry partner, looked up): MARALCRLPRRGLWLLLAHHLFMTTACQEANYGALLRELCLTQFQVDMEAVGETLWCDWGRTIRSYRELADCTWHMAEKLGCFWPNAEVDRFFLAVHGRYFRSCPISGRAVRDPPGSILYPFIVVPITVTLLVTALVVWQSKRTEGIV

[16] = biological target: Cholecystokinin CCK1 (CCKA) (h) (Homo sapiens (Human), UniProt P32238); experiment: as above; settings: read-out: binding at 10 μM
[17] = biological target: D2S (h) (Homo sapiens (Human), UniProt P14416); experiment: as above; settings: read-out: binding at 10 μM
[18] = biological target: D5 (h) (Homo sapiens (Human), UniProt P21918); experiment: as above; settings: read-out: binding at 10 μM
[19] = biological target: Endothelin ETA (h) (Homo sapiens (Human), UniProt P25101); experiment: as above; settings: read-out: binding at 10 μM
[20] = biological target: Galanin GAL1 (h) (Homo sapiens (Human), UniProt P47211); experiment: as above; settings: read-out: binding at 10 μM
Sequence of Galanin GAL1 (h) (P47211 whole entry, looked up): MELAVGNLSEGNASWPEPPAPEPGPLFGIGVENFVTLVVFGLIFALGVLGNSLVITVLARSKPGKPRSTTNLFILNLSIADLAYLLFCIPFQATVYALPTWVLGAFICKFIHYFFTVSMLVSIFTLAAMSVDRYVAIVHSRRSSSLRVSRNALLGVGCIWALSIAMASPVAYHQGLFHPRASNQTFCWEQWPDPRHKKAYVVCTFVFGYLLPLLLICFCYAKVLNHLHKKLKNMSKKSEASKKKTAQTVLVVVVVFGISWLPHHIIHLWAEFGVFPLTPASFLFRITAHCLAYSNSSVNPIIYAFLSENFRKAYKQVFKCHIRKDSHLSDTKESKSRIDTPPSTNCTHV

[21] = biological target: Galanin GAL2 (h) (Homo sapiens (Human), UniProt O43603); experiment: as above; settings: read-out: binding at 10 μM
[22] = tested on: Platelet-Derived Growth Factor (PDGF) (m); experiment: as above; assay type: binding, mouse
[23] = biological target: Melatonin MT1 (h) (Homo sapiens (Human), UniProt P48039); experiment: as above; settings: read-out: binding at 10 μM
Sequence of Melatonin MT1 (h) (P48039 whole entry, looked up): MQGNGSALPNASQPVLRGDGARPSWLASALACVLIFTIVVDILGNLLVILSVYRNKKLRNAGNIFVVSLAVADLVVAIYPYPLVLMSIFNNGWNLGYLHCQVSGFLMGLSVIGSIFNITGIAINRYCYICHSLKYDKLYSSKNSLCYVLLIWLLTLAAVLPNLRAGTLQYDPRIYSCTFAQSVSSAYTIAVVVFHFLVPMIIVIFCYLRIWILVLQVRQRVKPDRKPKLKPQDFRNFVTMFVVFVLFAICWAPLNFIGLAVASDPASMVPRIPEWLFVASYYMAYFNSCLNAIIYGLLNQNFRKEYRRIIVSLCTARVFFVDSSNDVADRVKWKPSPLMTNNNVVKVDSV

[24] = biological target: Neuropeptide Y Y2 (h) (Homo sapiens (Human), UniProt P49146); experiment: as above; settings: read-out: binding at 10 μM
[25] = biological target: Neurotensin NT1 (h) (Homo sapiens (Human), UniProt P30989); experiment: as above; settings: read-out: binding at 10 μM
[26] = biological target: PAC1 (Pituitary adenylate cyclase-activating polypeptide, PACAP) (h) (Homo sapiens (Human), UniProt P41586); experiment: as above; settings: read-out: binding at 10 μM
[27] = tested on: PCP (rat cortex); experiment: as above; assay type: binding
[28] = biological target: Prostaglandin EP4 (h) (Homo sapiens (Human), UniProt P35408); experiment: as above; settings: read-out: binding at 10 μM
[29] = biological target: Prostacyclin IP (PGI2) (h) (Homo sapiens (Human), UniProt P43119); experiment: as above; settings: read-out: binding at 10 μM
[30] = tested on: P2Y (ATP) (rat cortex); experiment: as above; assay type: binding
[31] = tested on: Somatostatin SST (non-selective) (m); experiment: as above; assay type: binding, mouse
[32] = biological target: Glucocorticoid GR (h) (Homo sapiens (Human), UniProt P04150); experiment: as above; settings: read-out: binding at 10 μM
Sequence of Glucocorticoid GR (h) (P04150 whole entry, looked up): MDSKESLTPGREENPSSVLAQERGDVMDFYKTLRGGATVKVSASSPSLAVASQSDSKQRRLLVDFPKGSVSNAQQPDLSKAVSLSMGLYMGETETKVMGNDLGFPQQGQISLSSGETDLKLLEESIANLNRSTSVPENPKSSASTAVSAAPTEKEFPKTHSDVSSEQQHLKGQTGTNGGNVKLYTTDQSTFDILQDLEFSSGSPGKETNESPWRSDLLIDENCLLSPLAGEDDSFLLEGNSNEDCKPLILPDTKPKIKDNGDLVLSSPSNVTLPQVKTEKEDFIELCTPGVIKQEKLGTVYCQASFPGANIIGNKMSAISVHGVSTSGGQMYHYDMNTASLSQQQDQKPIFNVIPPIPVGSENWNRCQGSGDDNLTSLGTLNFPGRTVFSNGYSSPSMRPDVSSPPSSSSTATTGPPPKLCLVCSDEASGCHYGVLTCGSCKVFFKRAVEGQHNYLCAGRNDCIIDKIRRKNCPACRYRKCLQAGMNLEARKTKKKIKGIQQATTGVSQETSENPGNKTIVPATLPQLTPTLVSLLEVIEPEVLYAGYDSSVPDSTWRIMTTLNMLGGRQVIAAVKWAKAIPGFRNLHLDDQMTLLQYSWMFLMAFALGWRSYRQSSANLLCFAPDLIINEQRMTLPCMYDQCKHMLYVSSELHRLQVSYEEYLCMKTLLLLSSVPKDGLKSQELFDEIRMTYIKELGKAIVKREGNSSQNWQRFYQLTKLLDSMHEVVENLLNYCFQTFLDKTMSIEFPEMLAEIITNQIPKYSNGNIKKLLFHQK

[33] = tested on: Potassium KV channel (rat cortex); experiment: as above; assay type: binding
[34] = tested on: Calcium SKCa channel (rat cortex); experiment: as above; assay type: binding
[35] = biological target: norepinephrine transporter (h) (Homo sapiens (Human), UniProt P23975); experiment: as above; settings: read-out: binding at 10 μM

Sequence of human 5-HT2B receptor (P41595 whole entry, looked up): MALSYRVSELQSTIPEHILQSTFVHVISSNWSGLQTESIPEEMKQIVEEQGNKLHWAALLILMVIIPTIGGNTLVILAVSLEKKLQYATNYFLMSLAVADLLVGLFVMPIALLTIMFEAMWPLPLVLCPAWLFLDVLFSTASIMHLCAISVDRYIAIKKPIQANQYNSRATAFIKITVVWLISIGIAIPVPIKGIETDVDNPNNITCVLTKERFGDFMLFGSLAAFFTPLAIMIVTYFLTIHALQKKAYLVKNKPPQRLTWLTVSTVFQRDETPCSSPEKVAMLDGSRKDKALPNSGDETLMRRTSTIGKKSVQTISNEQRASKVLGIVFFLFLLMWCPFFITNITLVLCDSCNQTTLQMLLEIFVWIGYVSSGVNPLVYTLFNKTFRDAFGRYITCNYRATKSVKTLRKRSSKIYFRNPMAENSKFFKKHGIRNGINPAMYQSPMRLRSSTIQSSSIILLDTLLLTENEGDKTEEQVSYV

With COc1cc(CC(C)N)c(OC)cc1I (racemic) [DOI, (±)-2,5-dimethoxy-4-iodoamphetamine, reference compound] the pKi [1] was 8.82, the pKi [2] was 9.32 and the inhibition at 10 µM [3] was ≥ 80%. For the same compound, the inhibition at 10 µM [4] was 64.4%, the inhibition at 10 µM [5] was 71.8% and the inhibition at 10 µM [6] was 75.7%. For the same compound, the “inhibition at 10 µM” value [7] was 53.5% inhibition at 10 μM, the “inhibition at 10 µM” value [8] was 61.7% inhibition at 10 μM and the inhibition at 10 µM ([9]; antagonist radioligand, read-out: inhibition at 10 μM) was 64.6%. For the same compound, the inhibition at 10 µM [10] was < 50%, the “binding at 10 μM” value [11] was “NB (inhibited less than 50% of radioligand bound to them, and therefore it can be concluded they do not bind (“no binding,” NB))” and the inhibition at 10 µM [12] was < 50%. The inhibition at 10 µM [13] was < 50%, the inhibition at 10 µM [14] was < 50% and the inhibition at 10 µM [15] was < 50%. The inhibition at 10 µM [16] was < 50%, the inhibition at 10 µM [17] was < 50% and the inhibition at 10 µM [18] was < 50%. For the same compound, the inhibition at 10 µM [19] was < 50%, the inhibition at 10 µM [20] was < 50% and the inhibition at 10 µM [21] was < 50%. The “binding at 10 μM” value [22] was “NB (inhibited less than 50% of radioligand bound to them, and therefore it can be concluded they do not bind (“no binding,” NB))”, the inhibition at 10 µM [23] was < 50% and the inhibition at 10 µM [24] was < 50%. The inhibition at 10 µM [25] was < 50%, the inhibition at 10 µM [26] was < 50% and the “binding at 10 μM” value [27] was “NB (inhibited less than 50% of radioligand bound to them, and therefore it can be concluded they do not bind (“no binding,” NB))”. For the same compound, the inhibition at 10 µM [28] was < 50%, the inhibition at 10 µM [29] was < 50% and the “binding at 10 μM” value [30] was “NB (inhibited less than 50% of radioligand bound to them, and therefore it can be concluded they do not bind (“no binding,” NB))”. The “binding at 10 μM” value [31] was “NB (inhibited less than 50% of radioligand bound to them, and therefore it can be concluded they do not bind (“no binding,” NB))”, the inhibition at 10 µM [32] was < 50% and the “binding at 10 μM” value [33] was “NB (inhibited less than 50% of radioligand bound to them, and therefore it can be concluded they do not bind (“no binding,” NB))”. For the same compound, the “binding at 10 μM” value [34] was “NB (inhibited less than 50% of radioligand bound to them, and therefore it can be concluded they do not bind (“no binding,” NB))” and the inhibition at 10 µM [35] was < 50%.

In the case of COc1cc(SC(F)(F)F)c(OC)cc1CCN [Compound I-1, 2-(2,5-dimethoxy-4-((trifluoromethyl)thio)phenyl)ethan-1-amine], the inhibition at 10 µM [1] was > 80%, the pKi ([1]; radioligand [125I](±)DOI, read-out: 5-HT2B, Ki) was 8.17 and the inhibition at 10 µM [2] was > 80%. The “binding selectivity for 5-HT2C over 5-HT2B” value ([2]; Ki, [125I]DOI) was ~12 fold, the pKi ([2]; radioligand [125I](±)DOI, read-out: 5-HT2C, Ki) was 9.26 and the inhibition at 10 µM [3] was > 80%. The inhibition at 10 µM [4] was > 80%, the inhibition at 10 µM [5] was > 80% and the inhibition at 10 µM [6] was > 80%. The “inhibition at 10 µM” value [7] was 68.4% inhibition at 10 μM, the “inhibition at 10 µM” value [8] was 64.1% inhibition at 10 μM and the inhibition at 10 µM ([9]; read-out: binding at 10 μM) was < 50%. The inhibition at 10 µM [10] was < 50%, the “binding at 10 μM” value [11] was “NB (inhibited less than 50% of radioligand bound to them, and therefore it can be concluded they do not bind (“no binding,” NB))” and the inhibition at 10 µM [12] was < 50%. The inhibition at 10 µM [13] was < 50%, the inhibition at 10 µM [14] was < 50% and the inhibition at 10 µM [15] was < 50%. The inhibition at 10 µM [16] was < 50%, the inhibition at 10 µM [17] was < 50% and the inhibition at 10 µM [18] was < 50%. For the same compound, the inhibition at 10 µM [19] was < 50%, the inhibition at 10 µM [20] was < 50% and the inhibition at 10 µM [21] was < 50%. The “binding at 10 μM” value [22] was “NB (inhibited less than 50% of radioligand bound to them, and therefore it can be concluded they do not bind (“no binding,” NB))”, the inhibition at 10 µM [23] was < 50% and the inhibition at 10 µM [24] was < 50%. The inhibition at 10 µM [25] was < 50%, the inhibition at 10 µM [26] was < 50% and the “binding at 10 μM” value [27] was “NB (inhibited less than 50% of radioligand bound to them, and therefore it can be concluded they do not bind (“no binding,” NB))”. For the same compound, the inhibition at 10 µM [28] was < 50%, the inhibition at 10 µM [29] was < 50% and the “binding at 10 μM” value [30] was “NB (inhibited less than 50% of radioligand bound to them, and therefore it can be concluded they do not bind (“no binding,” NB))”. The “binding at 10 μM” value [31] was “NB (inhibited less than 50% of radioligand bound to them, and therefore it can be concluded they do not bind (“no binding,” NB))”, the inhibition at 10 µM [32] was < 50% and the “binding at 10 μM” value [33] was “NB (inhibited less than 50% of radioligand bound to them, and therefore it can be concluded they do not bind (“no binding,” NB))”. For the same compound, the “binding at 10 μM” value [34] was “NB (inhibited less than 50% of radioligand bound to them, and therefore it can be concluded they do not bind (“no binding,” NB))” and the inhibition at 10 µM [35] was < 50%.
